Source: article PMC11571108, “Targeting PfCLK3 with Covalent Inhibitors: A Novel Strategy for Malaria Treatment” (Journal of Medicinal Chemistry, 2024)
Where “and” joins values, the source holds several entries; their conditions need not be identical. Equal values may be shown once.

Assays:
full-length PfCLK3 = details: PfCLK3 5 μg; triplicate wells
Method: To a 384-well thermal shift plate, 5 μL protein thermal shift buffer (Thermo Fisher Scientific), 5 μg full length PfCLK3 (4.17 μL, 1.2 mg/mL), 8.13 μL thermal shift buffer (Thermo Fisher Scientific), 0.2 μL 10 mM compound or vehicle (DMSO), and 2.5 μL protein thermal shift dye (Thermo Fisher Scientific) were added in triplicate. […] 5 Qpcr (Thermo Fisher Scientific). Fluorescence was recorded as proteins unfolded. The Boltzmann distribution was calculated and Tm obtained using Protein Thermal Shift Software v1.4 (Thermo Fisher Scientific).

EphA5(h) = EphA5(h) (Homo sapiens, UniProt P54756); assay: biochemical
Method: (§1) Compounds were evaluated using Eurofins Discovery’s KinaseProfiler Diversity Panel of 58 representative kinases. KinaseProfiler is a radiometric assay using [γ-^33P]-ATP to measure the phosphorylation of individual kinase substrates. A representative protocol for Abl is given below. Further details can be found by visiting the Eurofins Discovery Web site.
(§2) The reaction is initiated by the addition of the Mg/ATP mix. After incubation for 40 min at room temperature, the reaction is stopped by the addition of phosphoric acid to a concentration of 0.5%.

IGF-1R(h) = IGF-1R(h) (Homo sapiens, UniProt P08069); assay: biochemical
Method: as §1, §2

IKKα(h) = IKKα(h) (Homo sapiens, UniProt O15111); assay: biochemical
Method: as §1, §2

JAK2(h) = JAK2(h) (Homo sapiens, UniProt O60674); assay: biochemical
Method: as §1, §2

LOK(h) = LOK(h) (Homo sapiens, UniProt O94804); assay: biochemical
Method: as §1, §2

Lyn(h) = Lyn(h) (Homo sapiens, UniProt P07948); assay: biochemical
Method: as §1, §2

MAPKAP-K2(h) = MAPKAP-K2(h) (Homo sapiens, UniProt P49137); assay: biochemical
Method: as §1, §2

MLK1(h) = MLK1(h) (Homo sapiens, UniProt P80192); assay: biochemical
Method: as §1, §2

MST1(h) = MST1(h) (Homo sapiens, UniProt Q13043); assay: biochemical
Method: as §1, §2

Mnk2(h) = Mnk2(h) (Homo sapiens, UniProt Q9HBH9); assay: biochemical
Method: as §1, §2

NEK2(h) = NEK2(h) (Homo sapiens, UniProt P51955); assay: biochemical
Method: as §1, §2

PDGFRβ(h) = PDGFRβ(h) (Homo sapiens, UniProt P09619); assay: biochemical
Method: as §1, §2

PI3 Kinase (p120g)(h) = PI3 Kinase (p120g)(h) (Homo sapiens, UniProt P48736); assay: biochemical
Method: as §1, §2

PKA(h) = PKA(h) (Homo sapiens, UniProt P17612); assay: biochemical
Method: as §1, §2

PKBα(h) = PKBα(h) (Homo sapiens, UniProt P31749); assay: biochemical
Method: as §1, §2

PKCα(h) = PKCα(h) (Homo sapiens, UniProt P17252); assay: biochemical
Method: as §1, §2

Plk3(h) = Plk3(h) (Homo sapiens, UniProt Q9H4B4); assay: biochemical
Method: as §1, §2

ROCK-I(h) = ROCK-I(h) (Homo sapiens, UniProt Q13464); assay: biochemical
Method: as §1, §2

Rse(h) = Rse(h) (Homo sapiens, UniProt Q06418); assay: biochemical
Method: as §1, §2

SAPK2a(h) = SAPK2a(h) (Homo sapiens, UniProt Q16539); assay: biochemical
Method: as §1, §2

SRPK1(h) = SRPK1(h) (Homo sapiens, UniProt Q96SB4); assay: biochemical
Method: as §1, §2

TAK1(h) = TAK1(h) (Homo sapiens, UniProt O43318); assay: biochemical
Method: as §1, §2

eEF-2K(h) = eEF-2K(h) (Homo sapiens, UniProt O00418); assay: biochemical
Method: as §1, §2

ALK(h) = ALK(h) (Homo sapiens, UniProt Q9UM73); assay: biochemical
AMPKα1(h) = AMPKα1(h) (Homo sapiens, UniProt Q13131); assay: biochemical
ASK1(h) = ASK1(h) (Homo sapiens, UniProt Q99683); assay: biochemical
Aurora-A(h) = Aurora-A(h) (Homo sapiens, UniProt O14965); assay: biochemical
CDK1/cyclinB(h) = CDK1/cyclinB(h) (Homo sapiens, UniProt P06493); assay: biochemical
CDK2/cyclinA(h) = CDK2/cyclinA(h) (Homo sapiens, UniProt P24941); assay: biochemical
CDK7/cyclinH/MAT1(h) = CDK7/cyclinH/MAT1(h) (Homo sapiens, UniProt P50613); assay: biochemical
CDK9/cyclin T1(h) = CDK9/cyclin T1(h) (Homo sapiens, UniProt P50750); assay: biochemical
CHK1(h) = CHK1(h) (Homo sapiens, UniProt O14757); assay: biochemical
CK2α2(h) = CK2α2(h) (Homo sapiens, UniProt P19784); assay: biochemical
c-RAF(h) = c-RAF(h) (Homo sapiens, UniProt P04049); assay: biochemical
DRAK1(h) = DRAK1(h) (Homo sapiens, UniProt Q9UEE5); assay: biochemical

Sequence of Mnk2(h) (Q9HBH9 whole entry): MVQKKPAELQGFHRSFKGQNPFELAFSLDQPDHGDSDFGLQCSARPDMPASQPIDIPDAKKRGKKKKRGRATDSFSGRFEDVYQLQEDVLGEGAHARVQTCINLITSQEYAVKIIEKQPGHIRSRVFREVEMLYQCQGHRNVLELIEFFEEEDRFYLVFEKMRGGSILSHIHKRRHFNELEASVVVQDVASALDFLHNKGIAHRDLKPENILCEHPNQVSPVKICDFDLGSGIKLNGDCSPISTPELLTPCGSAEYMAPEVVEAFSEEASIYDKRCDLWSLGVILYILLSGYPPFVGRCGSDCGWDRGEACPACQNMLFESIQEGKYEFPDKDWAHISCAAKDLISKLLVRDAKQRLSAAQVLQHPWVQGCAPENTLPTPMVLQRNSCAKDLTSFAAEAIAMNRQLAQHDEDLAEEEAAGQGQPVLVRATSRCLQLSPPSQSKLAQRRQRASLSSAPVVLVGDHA
Sequence of MAPKAP-K2(h) (P49137 whole entry): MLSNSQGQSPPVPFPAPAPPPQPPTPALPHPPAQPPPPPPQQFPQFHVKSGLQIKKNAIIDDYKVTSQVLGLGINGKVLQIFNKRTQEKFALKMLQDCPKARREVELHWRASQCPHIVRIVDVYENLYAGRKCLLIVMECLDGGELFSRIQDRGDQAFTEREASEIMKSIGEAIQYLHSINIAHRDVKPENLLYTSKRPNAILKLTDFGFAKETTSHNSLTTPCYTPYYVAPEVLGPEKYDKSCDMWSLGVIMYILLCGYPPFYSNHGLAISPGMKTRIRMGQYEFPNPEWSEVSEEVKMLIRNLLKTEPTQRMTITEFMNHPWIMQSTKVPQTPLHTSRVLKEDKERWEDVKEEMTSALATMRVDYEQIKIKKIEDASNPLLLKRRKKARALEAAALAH
Sequence of PDGFRβ(h) (P09619 33-1106): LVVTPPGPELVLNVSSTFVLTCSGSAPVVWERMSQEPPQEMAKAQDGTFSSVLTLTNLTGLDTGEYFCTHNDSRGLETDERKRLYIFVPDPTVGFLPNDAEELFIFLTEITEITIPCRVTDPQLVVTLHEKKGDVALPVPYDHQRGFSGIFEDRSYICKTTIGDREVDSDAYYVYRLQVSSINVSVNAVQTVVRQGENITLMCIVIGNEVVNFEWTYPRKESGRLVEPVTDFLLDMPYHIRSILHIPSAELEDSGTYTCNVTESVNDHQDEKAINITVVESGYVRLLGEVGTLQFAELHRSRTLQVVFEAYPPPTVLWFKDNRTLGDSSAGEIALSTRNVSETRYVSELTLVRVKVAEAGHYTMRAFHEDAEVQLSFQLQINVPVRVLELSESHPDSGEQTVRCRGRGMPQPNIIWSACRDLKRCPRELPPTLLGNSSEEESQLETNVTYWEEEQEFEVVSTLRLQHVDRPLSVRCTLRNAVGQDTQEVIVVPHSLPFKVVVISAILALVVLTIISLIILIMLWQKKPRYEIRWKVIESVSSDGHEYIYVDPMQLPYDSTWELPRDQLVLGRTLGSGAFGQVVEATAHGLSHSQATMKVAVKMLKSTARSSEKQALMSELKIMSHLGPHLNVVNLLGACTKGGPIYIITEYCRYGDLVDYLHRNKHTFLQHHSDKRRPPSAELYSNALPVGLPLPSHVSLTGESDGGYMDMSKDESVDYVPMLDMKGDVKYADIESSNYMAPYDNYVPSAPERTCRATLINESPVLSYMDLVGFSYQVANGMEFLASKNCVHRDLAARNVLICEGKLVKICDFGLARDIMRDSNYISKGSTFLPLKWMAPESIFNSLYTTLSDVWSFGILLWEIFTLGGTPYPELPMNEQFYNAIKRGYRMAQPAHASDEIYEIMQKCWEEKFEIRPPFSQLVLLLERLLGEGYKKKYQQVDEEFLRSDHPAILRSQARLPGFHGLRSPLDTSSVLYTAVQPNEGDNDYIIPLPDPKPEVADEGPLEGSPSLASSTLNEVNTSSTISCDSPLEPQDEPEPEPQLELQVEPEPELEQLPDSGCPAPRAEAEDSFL
Sequence of MLK1(h) (P80192 whole entry): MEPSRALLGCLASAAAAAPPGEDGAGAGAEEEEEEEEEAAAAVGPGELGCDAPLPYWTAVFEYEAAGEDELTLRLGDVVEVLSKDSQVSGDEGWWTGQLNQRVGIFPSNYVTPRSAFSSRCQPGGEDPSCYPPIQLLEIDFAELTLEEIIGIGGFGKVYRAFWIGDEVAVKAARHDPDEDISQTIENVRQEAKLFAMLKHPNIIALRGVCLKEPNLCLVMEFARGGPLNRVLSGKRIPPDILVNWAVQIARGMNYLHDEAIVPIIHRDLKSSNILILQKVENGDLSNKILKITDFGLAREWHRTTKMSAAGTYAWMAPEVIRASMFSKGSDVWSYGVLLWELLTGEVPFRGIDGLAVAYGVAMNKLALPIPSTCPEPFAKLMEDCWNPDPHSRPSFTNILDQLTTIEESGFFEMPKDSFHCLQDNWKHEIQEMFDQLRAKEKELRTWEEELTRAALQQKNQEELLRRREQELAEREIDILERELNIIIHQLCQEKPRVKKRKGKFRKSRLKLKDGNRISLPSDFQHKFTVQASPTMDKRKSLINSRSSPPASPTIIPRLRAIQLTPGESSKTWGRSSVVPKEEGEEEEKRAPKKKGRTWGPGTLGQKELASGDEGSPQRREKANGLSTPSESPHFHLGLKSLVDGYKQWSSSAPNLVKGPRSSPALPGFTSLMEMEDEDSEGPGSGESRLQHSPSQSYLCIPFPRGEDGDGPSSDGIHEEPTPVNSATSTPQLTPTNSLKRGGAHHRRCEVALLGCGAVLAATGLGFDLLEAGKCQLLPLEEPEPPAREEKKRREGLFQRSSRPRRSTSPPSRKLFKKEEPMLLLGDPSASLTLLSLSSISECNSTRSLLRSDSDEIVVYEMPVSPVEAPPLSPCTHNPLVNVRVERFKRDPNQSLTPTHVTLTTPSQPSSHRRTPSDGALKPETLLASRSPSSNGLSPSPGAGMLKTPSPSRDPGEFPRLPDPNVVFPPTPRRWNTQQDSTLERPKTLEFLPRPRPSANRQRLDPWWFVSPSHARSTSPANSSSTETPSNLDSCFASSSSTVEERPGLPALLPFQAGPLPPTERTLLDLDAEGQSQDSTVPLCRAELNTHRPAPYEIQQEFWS
Sequence of eEF-2K(h) (O00418 whole entry): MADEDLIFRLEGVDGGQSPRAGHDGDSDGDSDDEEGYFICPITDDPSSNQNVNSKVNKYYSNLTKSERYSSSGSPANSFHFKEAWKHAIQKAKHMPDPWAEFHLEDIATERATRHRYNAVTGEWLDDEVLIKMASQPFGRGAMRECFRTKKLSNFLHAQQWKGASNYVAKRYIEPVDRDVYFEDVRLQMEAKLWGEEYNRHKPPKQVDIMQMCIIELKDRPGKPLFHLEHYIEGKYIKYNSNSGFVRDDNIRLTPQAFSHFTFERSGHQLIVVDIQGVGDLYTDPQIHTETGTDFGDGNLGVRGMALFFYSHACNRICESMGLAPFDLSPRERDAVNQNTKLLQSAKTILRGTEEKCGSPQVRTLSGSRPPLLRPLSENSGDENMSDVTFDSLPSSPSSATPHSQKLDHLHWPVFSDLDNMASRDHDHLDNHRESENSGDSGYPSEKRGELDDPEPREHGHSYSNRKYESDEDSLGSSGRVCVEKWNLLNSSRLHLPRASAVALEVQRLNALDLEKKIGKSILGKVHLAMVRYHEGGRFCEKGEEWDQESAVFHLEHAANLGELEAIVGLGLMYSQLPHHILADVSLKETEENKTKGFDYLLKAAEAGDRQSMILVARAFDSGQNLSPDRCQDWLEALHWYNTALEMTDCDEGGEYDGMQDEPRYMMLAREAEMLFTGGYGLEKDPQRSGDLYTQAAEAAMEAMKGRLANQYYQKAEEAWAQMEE
Sequence of TAK1(h) (O43318 1-303 limits assumed): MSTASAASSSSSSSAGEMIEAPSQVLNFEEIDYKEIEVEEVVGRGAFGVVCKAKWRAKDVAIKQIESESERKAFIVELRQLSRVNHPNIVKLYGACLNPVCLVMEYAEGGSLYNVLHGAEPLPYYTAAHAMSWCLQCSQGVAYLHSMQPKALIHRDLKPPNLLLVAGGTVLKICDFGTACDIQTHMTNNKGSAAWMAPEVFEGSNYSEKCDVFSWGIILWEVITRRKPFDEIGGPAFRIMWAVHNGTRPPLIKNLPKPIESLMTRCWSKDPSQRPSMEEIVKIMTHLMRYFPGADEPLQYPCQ

Question: Which “Tm B” value (full-length PfCLK3) does the source give for CCN(CC)Cc1ccc(OC)c(-c2cc3c(-c4ccc(C(=O)O)c(C(C)C)c4)ccnc3[nH]2)c1 [Compound 1, TCMDC-135051] here?
Answer: 66.66 and 66.67 and 66.65

Question: And the remaining activity at 1 µM (EphA5(h))?
Answer: 97%

Question: What about the remaining activity at 1 µM (IGF-1R(h)) of the same compound?
Answer: 94%

Question: What about the remaining activity at 1 µM (IKKα(h)) of the same compound?
Answer: 93%

Question: And the remaining activity at 1 µM (JAK2(h))?
Answer: 20%

Question: What about the remaining activity at 1 µM (LOK(h)) of the same compound?
Answer: 37%

Question: And the remaining activity at 1 µM (Lyn(h))?
Answer: 28%

Question: What about the remaining activity at 1 µM (MAPKAP-K2(h)) of the same compound?
Answer: 94%

Question: And the remaining activity at 1 µM (MLK1(h))?
Answer: 92%

Question: What about the remaining activity at 1 µM (MST1(h)) of the same compound?
Answer: 84%

Question: What about the remaining activity at 1 µM (Mnk2(h)) of the same compound?
Answer: 38%

Question: And the remaining activity at 1 µM (NEK2(h))?
Answer: 105%

Question: What about the remaining activity at 1 µM (PDGFRβ(h)) of the same compound?
Answer: 94%

Question: What about the remaining activity at 1 µM (PI3 Kinase (p120g)(h)) of the same compound?
Answer: 96%

Question: What about the remaining activity at 1 µM (PKA(h)) of the same compound?
Answer: 101%

Question: What about the remaining activity at 1 µM (PKBα(h)) of the same compound?
Answer: 106%

Question: And the remaining activity at 1 µM (PKCα(h))?
Answer: 73%

Question: And the remaining activity at 1 µM (Plk3(h))?
Answer: 100%

Question: And the remaining activity at 1 µM (ROCK-I(h))?
Answer: 117%

Question: And the remaining activity at 1 µM (Rse(h))?
Answer: 109%

Question: What about the remaining activity at 1 µM (SAPK2a(h)) of the same compound?
Answer: 105%

Question: And the remaining activity at 1 µM (SRPK1(h))?
Answer: 105%

Question: And the remaining activity at 1 µM (TAK1(h))?
Answer: 45%

Question: And the remaining activity at 1 µM (eEF-2K(h))?
Answer: 100%

Question: What about the remaining activity at 1 µM (ALK(h)) of the same compound?
Answer: 30%

Question: What about the remaining activity at 1 µM (AMPKα1(h)) of the same compound?
Answer: 46%

Question: What about the remaining activity at 1 µM (ASK1(h)) of the same compound?
Answer: 92%

Question: And the remaining activity at 1 µM (Aurora-A(h))?
Answer: 11%

Question: What about the remaining activity at 1 µM (CDK1/cyclinB(h)) of the same compound?
Answer: 15%

Question: And the remaining activity at 1 µM (CDK2/cyclinA(h))?
Answer: 30%

Question: What about the remaining activity at 1 µM (CDK7/cyclinH/MAT1(h)) of the same compound?
Answer: 102%

Question: And the remaining activity at 1 µM (CDK9/cyclin T1(h))?
Answer: 6%

Question: And the remaining activity at 1 µM (CHK1(h))?
Answer: 101%

Question: And the remaining activity at 1 µM (CK2α2(h))?
Answer: 39%

Question: What about the remaining activity at 1 µM (c-RAF(h)) of the same compound?
Answer: 106%

Question: And the remaining activity at 1 µM (DRAK1(h))?
Answer: 83%
